# Assay results reported in publication PMC4731831, “Better than Nature: Nicotinamide Biomimetics That Outperform Natural Coenzymes” (Journal of the American Chemical Society, 2016).
# Molecular target: T1, TsOYE (Thermus scotoductus, UniProt B0JDW3)
# T1 construct: gene chrR; overexpressed ene reductase with FMN; construct only in supplement
# Assay: anaerobic stopped-flow flavin reduction
# Assay type: biochemical
# Details: apparent; reductive half-reaction; 50 mM MOPS pH 7.0, 5 mM CaCl2, 30 °C
# Source text: anaerobic stopped-flow flavin reduction on TsOYE
row,Kd,SMILES
1,8 ± 0.7 µM,NC(=O)C1=CN([C@@H]2O[C@H](COP(=O)(O)OP(=O)(O)OC[C@H]3O[C@@H](n4cnc5c(N)ncnc54)[C@H](O)[C@@H]3O)[C@@H](O)[C@H]2O)C=CC1 [NADH]
2,9 ± 0.6 µM,NC(=O)C1=CN([C@@H]2O[C@H](COP(=O)(O)OP(=O)(O)OC[C@H]3O[C@@H](n4cnc5c(N)ncnc54)[C@H](OP(=O)(O)O)[C@@H]3O)[C@@H](O)[C@H]2O)C=CC1 [NADPH]
3,227 ± 5 µM,"NC(=O)C1=CN(Cc2ccccc2)C=CC1 [compound 1, biomimetic 1]"
4,406 ± 12 µM,"CCCCN1C=CCC(C(N)=O)=C1 [compound 2, biomimetic 2]"
